The values below come from ChEMBL document CHEMBL1142667, “Modulation of MRP-1-mediated multidrug resistance by indomethacin analogues” (J Med Chem, 2005).

Each structure is given as a SMILES string. The source made the active and inactive calls. No cut-off for these calls is given here.

In one assay the test system is T98G. In words: Effect of compound (10 uM) on doxorubicin-induced cytotoxicity towards T98G cell line expressing multidrug resistance associated protein 1 (MRP-1); Toxic. Type of assay: functional, cell-based. Conditions: Homo sapiens.
For the compound `CN1CCc2c(c3cc(S(=O)(=O)O)ccc3n2C(=O)c2ccc(Cl)cc2)C1`, the Effect result is “Toxic”.
The same measure, in the same setting: under `CCOC(=O)CCc1c(C)n(C(=O)c2cccs2)c2ccc(OC)cc12` stands “Toxic”; under `Cc1c(CCCC(=O)O)c2cc(S(=O)(=O)O)ccc2n1C(=O)c1ccc(Cl)cc1`, “Toxic”; under `CCCCCCCCCCc1c(C)n(C(=O)c2ccc(-c3ccccc3)cc2)c2ccc(S(=O)(=O)O)cc12`, “Toxic”.
The same measure, in the same setting: the same measure for `Cc1c(Cc2ccccc2)c2cc(S(=O)(=O)O)ccc2n1C(=O)c1ccco1`: “Toxic”.

The subject of another assay is T98G. The experiment in a line: Effect of compound (10 uM) on doxorubicin-induced cytotoxicity towards T98G cell line expressing multidrug resistance associated protein 1 (MRP-1); Active. It is filed as functional, cell-based. The settings on record: Homo sapiens.
For `COc1ccc2c(c1)c(CC(=O)O)c(C)n2C(=O)c1ccc(-c2ccccc2)cc1`, the Effect entry is “Active”.
On the same count and under the same terms, the same measure for `O=C(c1ccccn1)n1c2c(c3cc(S(=O)(=O)O)ccc31)CSCC2`: “Active”.
Still for that read-out and setting: the same measure for `O=C(c1ccccc1)N1CCc2c(c3cc(S(=O)(=O)O)ccc3n2C(=O)c2ccc(-c3ccccc3)cc2)C1`: “Active”; for `COc1ccc2c(c1)c(CC(=O)O)c(C)n2C(=O)c1cccs1`: “Active”.
On the same count and under the same terms, the same measure for `COc1ccc2c(c1)c(CC(=O)O)c(C)n2C(=O)c1ccc(F)cc1`: “Active”; for `COc1ccc2c(c1)c(CC(=O)O)c(C)n2C(=O)c1ccc(N(C)C)cc1`: “Active”; for `COc1ccc2c(c1)c(CC(=O)O)c(C)n2C(=O)c1ccc(C)cc1`: “Active”.
As to `COc1ccc2c(c1)c(CC(=O)O)c(C)n2C(=O)c1ccc(Cl)cc1`, the Effect entry was “Active”.
Still for that read-out and setting: under `CCOC(=O)CCCc1c(C)n(C(=O)c2ccc(N(C)C)cc2)c2ccc(OC)cc12` stands “Active”.
Same read-out and setting: the same measure for `COc1ccc2c(c1)c(CCCC(=O)O)c(C)n2C(=O)c1ccc(N(C)C)cc1`: “Active”; for `COc1ccc2c(c1)c(CCCC(=O)O)c(C)n2C(=O)c1ccccn1`: “Active”.
On the same count and under the same terms, the same measure for `O=C(c1ccc(-c2ccccc2)cc1)n1c2c(c3cc(S(=O)(=O)O)ccc31)CCCC2`: “Active”.
Turning to `Cc1c(CCCC(=O)O)c2cc(C(=O)O)ccc2n1C(=O)c1ccc(Cl)cc1`, the Effect entry was “Active”.
`COc1ccc2c(c1)c(CCC(=O)O)c(C)n2C(=O)c1ccc(N(C)C)cc1`: the Effect entry was “Active”.
Same read-out and setting: the same measure for `O=C(c1ccccc1)N1CCc2c(c3cc(S(=O)(=O)O)ccc3n2C(=O)c2ccc(Cl)cc2)C1`: “Active”; for `COc1ccc2c(c1)c(CCCC(=O)O)c(C)n2C(=O)c1cccs1`: “Active”.
On the same count and under the same terms, under `CCCCCCCCCCc1c(C)n(C(=O)c2ccc(Cl)cc2)c2ccc(C(=O)O)cc12` stands “Active”; under `Cc1c(Cc2ccc(O)cc2)c2cc(S(=O)(=O)O)ccc2n1C(=O)c1ccc(Cl)cc1`, “Active”; under `O=C(c1ccc(-c2ccccc2)cc1)n1c2c(c3cc(S(=O)(=O)O)ccc31)CSCC2`, “Active”.
The same measure, in the same setting: under `O=C(c1ccccn1)n1c2c(c3cc(S(=O)(=O)O)ccc31)CCCC2` stands “Active”.

A further assay concerns T98G. The experiment in a line: Effect of compound (10 uM) on doxorubicin-induced cytotoxicity towards T98G cell line expressing multidrug resistance associated protein 1 (MRP-1); Very active. It is filed as functional, cell-based. The settings on record: Homo sapiens.
In the case of `O=C(O)c1ccc2c(c1)c1c(n2C(=O)c2ccc(Cl)cc2)CCSC1`, the Effect entry was “Active”.
The same measure, in the same setting: under `Cc1ccc2c(c1)c(CCCC(=O)O)c(C)n2C(=O)c1ccc(Cl)cc1` stands “Active”.
Still for that read-out and setting: the same measure for `O=C(O)c1ccc2c(c1)c1c(n2C(=O)c2ccc(Cl)cc2)CCCC1`: “Active”; for `COc1ccc2c(c1)c(CCCC(=O)O)c(C)n2C(=O)c1ccc(Br)cc1`: “Active”.
Same read-out and setting: under `COc1ccc2c(c1)c(CCC(=O)O)c(C)n2C(=O)c1ccc(Br)cc1` stands “Active”.
Regarding `COc1ccc2c(c1)c(CC(=O)O)c(C)n2C(=O)c1ccc(Br)cc1`, the Effect entry is “Active”.
With `COc1ccc2c(c1)c(CCCC(=O)O)c(C)n2C(=O)c1ccc(Cl)cc1`, the Effect result is “Active”.
Still for that read-out and setting: the same measure for `Cc1ccc2c(c1)c(CCC(=O)O)c(C)n2C(=O)c1ccc(Cl)cc1`: “Active”; for `COc1ccc2c(c1)c(CCC(=O)O)c(C)n2C(=O)c1ccc(Cl)cc1`: “Active”.

The test system of a further assay is T98G. In words: Effect of compound (10 uM) on doxorubicin-induced cytotoxicity towards T98G cell line expressing multidrug resistance associated protein 1 (MRP-1). Type of assay: functional, cell-based. Conditions: Homo sapiens.
Take `COc1ccc2c(c1)c(CCC(=O)O)c(C)n2C(=O)c1ccc(-c2ccccc2)cc1`: the Effect result is “Active”.

The subject of the next assay is T98G. In words: Effect of compound (10 uM) on doxorubicin-induced cytotoxicity towards T98G cell line expressing multidrug resistance associated protein 1 (MRP-1); Inactive. It is filed as functional, cell-based. Conditions: Homo sapiens.
`Cc1c(Cc2ccc(O)cc2)c2cc(S(=O)(=O)O)ccc2n1C(=O)c1ccc(-c2ccccc2)cc1`: the Effect result is “inactive”.
As for `O=C(c1ccc(Cl)cc1)n1c2c(c3cc(S(=O)(=O)O)ccc31)CCCC2`, the Effect result is “inactive”.
The same measure, in the same setting: the same measure for `O=C(c1ccco1)n1c2c(c3cc(S(=O)(=O)O)ccc31)CSCC2`: “inactive”; for `O=C(c1ccc(Cl)cc1)n1c2c(c3cc(S(=O)(=O)O)ccc31)CCCCCC2`: “inactive”.
As for `COc1ccc2c(c1)c(CCC(=O)O)c(C)n2C(=O)c1ccccn1`, the Effect result is “inactive”.
As for `Cc1c(Cc2ccccc2)c2cc(S(=O)(=O)O)ccc2n1C(=O)c1ccc(Cl)cc1`, the Effect entry is “inactive”.
Still for that read-out and setting: under `CCc1c(C)n(C(=O)c2ccc(Cl)cc2)c2ccc(S(=O)(=O)O)cc12` stands “inactive”.
As for `Cc1c(CCCC(=O)O)c2cc(S(=O)(=O)O)ccc2n1C(=O)c1ccc(-c2ccccc2)cc1`, the Effect entry is “inactive”.
Regarding `COc1ccc2c(c1)c(CC(=O)O)c(C)n2C(=O)c1ccccn1`, the Effect entry is “inactive”.
The same measure, in the same setting: under `CN1CCc2c(c3cc(S(=O)(=O)O)ccc3n2C(=O)c2ccc(-c3ccccc3)cc2)C1` stands “inactive”; under `COC(=O)CCCc1c(C)n(C(=O)c2ccco2)c2ccc(S(=O)(=O)O)cc12`, “inactive”; under `CCc1c(C)n(C(=O)c2ccco2)c2ccc(S(=O)(=O)O)cc12`, “inactive”.
Still for that read-out and setting: the same measure for `Cc1c(CCC(=O)O)c2cc(S(=O)(=O)O)ccc2n1C(=O)c1ccco1`: “inactive”.
In the case of `CCCCCCCCCCc1c(C)n(C(=O)c2ccco2)c2ccc(S(=O)(=O)O)cc12`, the Effect entry was “inactive”.
On the same count and under the same terms, the same measure for `Cc1c(CC(=O)O)c2cc(Br)ccc2n1C(=O)c1ccco1`: “inactive”.
Still for that read-out and setting: the same measure for `CCCCCCCCCCc1c(C)n(C(=O)c2ccc(Cl)cc2)c2ccc(S(=O)(=O)O)cc12`: “inactive”.
Still for that read-out and setting: under `COC(=O)CCCc1c(C)n(C(=O)c2ccc(Cl)cc2)c2ccc(S(=O)(=O)O)cc12` stands “inactive”; under `COC(=O)CCc1c(C)n(C(=O)c2ccco2)c2ccc(S(=O)(=O)O)cc12`, “inactive”; under `O=C(c1ccco1)n1c2c(c3cc(S(=O)(=O)O)ccc31)CCCC2`, “inactive”.
Consider `O=C(c1ccccc1)N1CCc2c(c3cc(S(=O)(=O)O)ccc3n2C(=O)c2ccco2)C1`, for which the Effect entry is “inactive”.
Take `COc1ccc2c(c1)c(CC(=O)O)c(C)n2C(=O)c1ccco1`: the Effect result is “inactive”.
Still for that read-out and setting: the same measure for `Cc1c(Cc2ccccc2)c2cc(S(=O)(=O)O)ccc2n1C(=O)c1ccc(-c2ccccc2)cc1`: “inactive”; for `Cc1c(CCCC(=O)O)c2cc(S(=O)(=O)O)ccc2n1C(=O)c1ccco1`: “inactive”.
On the same count and under the same terms, under `O=C(c1ccc(Cl)cc1)n1c2c(c3cc(S(=O)(=O)O)ccc31)CSCC2` stands “inactive”.
